Reference: PubChem BioAssay AID815 (Emory University Molecular Libraries Screening Center, 2007)
Inconclusive results are not listed. Calls of active or inactive are those of the source.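 Rule for the calls: active = compounds whose half-maximal effective concentration EC50 against measles virus is under 10 µM; inactive = the rest, inconclusive results apart.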

What follows are compounds tested on Vero cells, measles virus yield reduction, TCID50, 36 h (assay: measles virus yield reduction and host cell toxicity, dose response, EC50 and CC50 (AID 815)). Conditions: not given.
In the case of `O=C(Nc1ccc(S(=O)(=O)N2CCCC2)cc1)c1cc(C(F)(F)F)ccc1F`, the EC50 is reported as > 75 µM (inactive).
With `O=C(Nc1ccc(S(=O)(=O)N2CCCC2)cc1)c1ccco1` the EC50 was > 75 µM (inactive).
In the case of `O=C(Nc1ccc(S(=O)(=O)N2CCCC2)cc1)c1cccs1`, the EC50 is reported as > 75 µM (inactive).
With `Cn1nc(C(F)(F)F)cc1C(=O)Nc1ccc(S(=O)(=O)N2CCC[C@H]2C(=O)OC(=O)c2ccccc2)cc1` the EC50 was 14 µM (inactive).
`Cc1cc(C(=O)Nc2ccc(S(=O)(=O)N3CCCC3)cc2)n(C)n1` was tested, and the EC50 was > 75 µM (inactive).
`Cn1nc(C(F)(F)F)cc1C(=O)Cc1ccc(S(=O)(=O)N2CCCC2)cc1` was tested, and the EC50 was 15.5 µM (inactive).
In the case of `Cn1nc(C(F)(F)F)cc1C(=O)Nc1ccc(S(=O)(=O)N2CCCCC2C(=O)O)cc1` (stereo not drawn), the EC50 is reported as > 75 µM (inactive).
With `O=C(Nc1ccc(S(=O)(=O)N2CCCC2)cc1)c1ccc(C(F)(F)F)cc1[N+](=O)[O-]` the EC50 was > 75 µM (inactive).
`O=C(Nc1ccc(S(=O)(=O)N2CCCC2)cc1)c1ccc(C(F)(F)F)cc1` was tested, and the EC50 was 48 µM (inactive).
`Cn1nc(C(F)(F)F)cc1COc1ccc(S(=O)(=O)N2CCCC2)cc1` was tested, and the EC50 was > 75 µM (inactive).
With `Cn1nc(C(F)(F)F)cc1C(=O)Nc1ccc(S(=O)(=O)N2CCNCC2)cc1` the EC50 was 28 µM (inactive).
In the case of `Cn1nc(C(F)(F)F)cc1C(=O)Nc1ccc(S(=O)(=O)N2CCC[C@H]2C(=O)O)cc1`, the EC50 is reported as 23 µM (inactive).
In the case of `Cn1nc(C(F)(F)F)cc1C(=O)Nc1ccc(S(=O)(=O)N2CCCC2)cc1O`, the EC50 is reported as > 75 µM (inactive).
In the case of `Cc1cc(CNc2ccc(S(=O)(=O)N3CCCC3)cc2)n(C)n1`, the EC50 is reported as > 75 µM (inactive).
In the case of `Nc1ccc(C(=O)Nc2ccc(S(=O)(=O)N3CCCC3)cc2)c(Cl)c1`, the EC50 is reported as > 75 µM (inactive).
In the case of `O=C(Nc1ccc(S(=O)(=O)N2CCCC2)cc1)c1cc(C(F)(F)F)nn1Cc1ccccc1`, the EC50 is reported as > 75 µM (inactive).
In the case of `Cn1nc(C(C)(C)C)cc1C(=O)Nc1ccc(S(=O)(=O)N2CCCC2)cc1`, the EC50 is reported as 25 µM (inactive).
`Cc1nc(C(F)(F)F)ccc1C(=O)Nc1ccc(S(=O)(=O)N2CCCC2)cc1` was tested, and the EC50 was > 75 µM (inactive).
`O=C(Nc1ccc(S(=O)(=O)N2CCCC2)cc1)c1ccc(F)cc1` was tested, and the EC50 was > 75 µM (inactive).
`COc1ccc(Br)c(C(=O)Nc2ccc(S(=O)(=O)N3CCCC3)cc2)c1` was tested, and the EC50 was > 75 µM (inactive).
For `Cn1nc(C(F)(F)F)cc1C(O)Cc1ccc(S(=O)(=O)N2CCCC2)cc1` (stereo not drawn), the EC50 was 41 µM (inactive).
For `O=C(Nc1ccc(S(=O)(=O)N2CCCC2)cc1)c1cccc(C(F)(F)F)c1`, the EC50 was > 75 µM (inactive).
`Cn1nc(C(F)(F)F)cc1C(=O)Nc1ccc(S(=O)(=O)N2CCOCC2)cc1` was tested, and the EC50 was 43 µM (inactive).
In the case of `O=C(Nc1ccc(S(=O)(=O)N2CCCC2)cc1)c1nccn1-c1ccccc1C(F)(F)F`, the EC50 is reported as 65 µM (inactive).
Compound `Cn1nc(C(F)(F)F)cc1C(=O)Nc1ccc(S(=O)(=O)N2CCCCC2)cc1` has an EC50 of under 2.3 µM.
With `O=C(Nc1ccc(S(=O)(=O)N2CCCC2)cc1)c1ccccc1C(F)(F)F` the EC50 was > 75 µM (inactive).
`O=C(Nc1ccc(S(=O)(=O)N2CCCC2)cc1)c1ccc([N+](=O)[O-])cc1Cl` was tested, and the EC50 was > 75 µM (inactive).
In the case of `O=C(Nc1ccc(S(=O)(=O)N2CCCC2)cc1)c1nc2ccccc2s1`, the EC50 is reported as > 75 µM (inactive).
In the case of `Cn1nc(C(F)(F)F)cc1C(=O)Nc1ccc(S(=O)(=O)N2CCCC2)cc1N`, the EC50 is reported as > 75 µM (inactive).

Same assay, conditions: measured here: cytotoxicity, viable cells
`O=C(Nc1ccc(S(=O)(=O)N2CCCC2)cc1)c1cc(C(F)(F)F)ccc1F` gave a CC50 of 76 µM.
`O=C(Nc1ccc(S(=O)(=O)N2CCCC2)cc1)c1ccco1` was tested, and the CC50 was over 300 µM.
Work on `O=C(Nc1ccc(S(=O)(=O)N2CCCC2)cc1)c1cccs1` yielded a CC50 of over 300 µM.
`Cn1nc(C(F)(F)F)cc1C(=O)Nc1ccc(S(=O)(=O)N2CCC[C@H]2C(=O)OC(=O)c2ccccc2)cc1` gave a CC50 of 100 µM.
`Cc1cc(C(=O)Nc2ccc(S(=O)(=O)N3CCCC3)cc2)n(C)n1` showed a CC50 of over 300 µM.
For `Cn1nc(C(F)(F)F)cc1C(=O)Cc1ccc(S(=O)(=O)N2CCCC2)cc1`, the CC50 was over 300 µM.
`Cn1nc(C(F)(F)F)cc1C(=O)Nc1ccc(S(=O)(=O)N2CCCCC2C(=O)O)cc1` (stereo not drawn) was tested, and the CC50 was over 300 µM.
`O=C(Nc1ccc(S(=O)(=O)N2CCCC2)cc1)c1ccc(C(F)(F)F)cc1[N+](=O)[O-]` showed a CC50 of over 300 µM.
Work on `O=C(Nc1ccc(S(=O)(=O)N2CCCC2)cc1)c1ccc(C(F)(F)F)cc1` yielded a CC50 of over 300 µM.
`Cn1nc(C(F)(F)F)cc1COc1ccc(S(=O)(=O)N2CCCC2)cc1` was tested, and the CC50 was over 300 µM.
For `Cn1nc(C(F)(F)F)cc1C(=O)Nc1ccc(S(=O)(=O)N2CCNCC2)cc1`, the CC50 was 126 µM.
For `Cn1nc(C(F)(F)F)cc1C(=O)Nc1ccc(S(=O)(=O)N2CCC[C@H]2C(=O)O)cc1`, the CC50 was over 300 µM.
For `Cn1nc(C(F)(F)F)cc1C(=O)Nc1ccc(S(=O)(=O)N2CCCC2)cc1O`, the CC50 was 288 µM.
`Cc1cc(CNc2ccc(S(=O)(=O)N3CCCC3)cc2)n(C)n1` was tested, and the CC50 was over 300 µM.
`Nc1ccc(C(=O)Nc2ccc(S(=O)(=O)N3CCCC3)cc2)c(Cl)c1` was tested, and the CC50 was over 300 µM.
With `O=C(Nc1ccc(S(=O)(=O)N2CCCC2)cc1)c1cc(C(F)(F)F)nn1Cc1ccccc1` the CC50 was 37 µM.
In the case of `Cn1nc(C(C)(C)C)cc1C(=O)Nc1ccc(S(=O)(=O)N2CCCC2)cc1`, the CC50 is reported as 140 µM.
In the case of `Cc1nc(C(F)(F)F)ccc1C(=O)Nc1ccc(S(=O)(=O)N2CCCC2)cc1`, the CC50 is reported as over 300 µM.
`O=C(Nc1ccc(S(=O)(=O)N2CCCC2)cc1)c1ccc(F)cc1` showed a CC50 of over 300 µM.
Compound `COc1ccc(Br)c(C(=O)Nc2ccc(S(=O)(=O)N3CCCC3)cc2)c1` has a CC50 of over 300 µM.
Compound `Cn1nc(C(F)(F)F)cc1C(O)Cc1ccc(S(=O)(=O)N2CCCC2)cc1` (stereo not drawn) has a CC50 of over 300 µM.
Compound `O=C(Nc1ccc(S(=O)(=O)N2CCCC2)cc1)c1cccc(C(F)(F)F)c1` has a CC50 of over 300 µM.
In the case of `Cn1nc(C(F)(F)F)cc1C(=O)Nc1ccc(S(=O)(=O)N2CCOCC2)cc1`, the CC50 is reported as over 300 µM.
For `O=C(Nc1ccc(S(=O)(=O)N2CCCC2)cc1)c1nccn1-c1ccccc1C(F)(F)F`, the CC50 was over 300 µM.
`Cn1nc(C(F)(F)F)cc1C(=O)Nc1ccc(S(=O)(=O)N2CCCCC2)cc1` showed a CC50 of over 300 µM.
`O=C(Nc1ccc(S(=O)(=O)N2CCCC2)cc1)c1ccccc1C(F)(F)F` gave a CC50 of over 300 µM.
`O=C(Nc1ccc(S(=O)(=O)N2CCCC2)cc1)c1ccc([N+](=O)[O-])cc1Cl` was tested, and the CC50 was over 300 µM.
`O=C(Nc1ccc(S(=O)(=O)N2CCCC2)cc1)c1nc2ccccc2s1` gave a CC50 of over 300 µM.
`Cn1nc(C(F)(F)F)cc1C(=O)Nc1ccc(S(=O)(=O)N2CCCC2)cc1N` was tested, and the CC50 was over 300 µM.
